Measured values reported in the OPERA property sets (Mansouri et al. 2018).
Converted amounts (≈) assume the structure as drawn.

Settings: not given
Compound `O=[N+]([O-])c1cc(Cl)c(Cl)c(Cl)c1Cl` has a logP of 3.93. `Cc1ccc2ccc3ccccc3c2c1` showed a logP of 5.15. Compound `ClC1=C(Cl)C2(Cl)C3C(Cl)C(Cl)(Cl)CC3C1(Cl)C2(Cl)Cl` (stereo not given) has a logP of 6.2. With `CCCCC(C)O` (stereo not given) the logP was 1.76. With `NC(=O)c1cccc2ccccc12` the logP was 1.88. Work on `CC(=O)Nc1cc(NS(=O)(=O)C(F)(F)F)c(C)cc1C` yielded a logP of 2.02. `COc1nc(C)nc(=NC(O)=NS(=O)(=O)c2ccccc2C(=O)O)[nH]1` showed a logP of 1.7. In the case of `Clc1ccc2cccc(Cl)c2c1`, the logP is reported as 4.56. For `CCCCCOC(=O)c1ccccc1C(=O)OCCCCC`, the logP was 5.62. In the case of `Oc1ccc2c(c1)OCC1c3cc4c(cc3OC21)OCO4` (stereo not given), the logP is reported as 2.61. In the case of `Cc1cc(C)c(C#[N+][O-])c(C)c1`, the logP is reported as 3.21. `N=C(N)NN=Cc1ccc([N+](=O)[O-])cc1` showed a logP of 0.87. In the case of `COP(=S)(OC)Oc1ccccc1`, the logP is reported as 3.03. With `Cc1cc(Cc2c(Cl)cccc2Cl)c(Cl)cc1Cl` the logP was 6.73. In the case of `Oc1cccc2ncccc12`, the logP is reported as 1.85. With `CCCN1C(=O)C(=Cc2ccc([N+](=O)[O-])o2)SC1=NC(C)=O` the logP was 1.17. For `O=[N+]([O-])c1cc(Cl)cc(Cl)c1`, the logP was 3.09. For `COC(=O)CCCCC(=O)OC`, the solubility was 34.4 mM (≈ 6000 µg/mL). In the case of `C=C(C)C(N)=O`, the logP is reported as -1.11. Work on `COC(=O)c1ccccc1C(=O)OC` yielded a logP of 1.6. Compound `CCCCC(OC(Cc1ccccc1)C(=O)N1CCC(OCOC)CC1)C(=O)NC(CC1CCCCC1)C(O)CC(C(=O)NCCCNC(=NC#N)NC)C(C)C` (stereo not given) has a logP of 4.4. For `Clc1ccc(-c2ccccc2Cl)cc1Cl`, the logP was 5.87. For `N=C(N)NN=C(c1ccccc1)c1cccs1`, the logP was 1.96. `Cc1ncc(CO)c(C=O)c1O.Cl` showed a solubility of 2460 mM. `CN1CCN(Cc2cccc(COc3ccccc3)c2)CC1` showed a logP of 3.05. `CCCCCCOC(=O)c1cccnc1` showed a logP of 3.51. For `CC(=O)OCn1ncc2c(O)ncnc21`, the logP was -0.35. `CCCN(CCC)C1COc2c(O)cccc2C1` (stereo not given) gave a logP of 3.3. Compound `Nc1cccc(Cl)c1` has a solubility of 42.3 mM (≈ 5400 µg/mL). In the case of `CNC(N)=S`, the logP is reported as -0.69. With `CNc1nc(C)nc(C(Cl)(Cl)Cl)n1` the logP was 2.43. `CC(C)(C)C(O)C(Oc1ccc(Cl)cc1)n1cncn1` (stereo not given) showed a logP of 2.9. `OC(CN1C2CCCCC21)Cn1ccnc1` (stereo not given) showed a logP of 1.07. Compound `COc1sc(C(=O)Nc2nn[nH]n2)c(OC(C)C)c1Br` has a logP of 1.35. Compound `O=C(O)c1ccccc1S(=O)(=O)O` has a solubility of 2470 mM (≈ 500000 µg/mL). `CCCCc1ccc(Cn2cncn2)cc1` gave a logP of 2.81.

Same assay, conditions: 20 °C
`c1ccc(C2CO2)cc1` (stereo not given) showed a solubility of 25 mM (≈ 3000 µg/mL). `C=C(C)[C@H]1Cc2c(ccc3c2O[C@@H]2COc4cc(OC)c(OC)cc4[C@@H]2C3=O)O1` gave a solubility of 0.000507 mM (≈ 0.2 µg/mL).

Same assay, conditions: 24.0 °C
Compound `Clc1cccc2c1Oc1ccccc1O2` has a log10 OH rate constant (cm³/molecule/s) of -11.3.

Same assay, conditions: 25 °C
Work on `CCOC(=O)[C@H](CCc1ccccc1)N[C@@H](C)C(=O)N1CCC[C@H]1C(=O)O` yielded a solubility of 43.6 mM (≈ 16400 µg/mL). Compound `COc1cc(Cl)ccc1O` has a solubility of 31.5 mM (≈ 5000 µg/mL). `O=C(Oc1ccccc1)c1ccccc1C(=O)Oc1ccccc1` gave a solubility of 0.000258 mM (≈ 0.082 µg/mL). For `COC(=O)c1ccccc1C(=O)OC`, the solubility was 20.6 mM (≈ 4000 µg/mL). In the case of `OCC(CO)(CO)COCC(CO)(CO)CO`, the solubility is reported as 11 mM (≈ 2800 µg/mL). Compound `CCC(C)n1c(=O)[nH]c(C)c(Br)c1=O` (stereo not given) has a solubility of 3.12 mM (≈ 815 µg/mL). With `COc1ccc(C(c2ccc(OC)cc2)C(Cl)(Cl)Cl)cc1` the solubility was 0.000289 mM (≈ 0.1 µg/mL). In the case of `C=C(C)C(=C)C`, the solubility is reported as 3.97 mM (≈ 327 µg/mL). For `CC(C)NC(C)C`, the solubility was 1090 mM (≈ 110000 µg/mL). For `O=C(O)CCCOc1cc(Cl)c(Cl)cc1Cl`, the solubility was 0.148 mM (≈ 42 µg/mL). In the case of `CC(C)c1ccccc1`, the solubility is reported as 0.51 mM (≈ 61.3 µg/mL). `CCCCC(=O)O[C@]1(C(=O)CO)[C@@H](C)C[C@H]2[C@@H]3CCC4=CC(=O)C=C[C@]4(C)[C@@]3(F)[C@@H](O)C[C@@]21C` gave a solubility of 0.0195 mM (≈ 9.29 µg/mL). In the case of `O=[N+]([O-])c1ccc2ccccc2c1`, the solubility is reported as 0.0534 mM (≈ 9.24 µg/mL). Work on `CC(C)CCCCCOC(=O)c1ccccc1C(=O)OCCCCCC(C)C` yielded a solubility of 0.00023 mM (≈ 0.09 µg/mL).

Same assay, conditions: 25.0 °C
For `O=CC(Cl)Cl`, the log10 OH rate constant (cm³/molecule/s) was -11.6. `OC(C(F)(F)F)C(F)(F)F` showed a log10 OH rate constant (cm³/molecule/s) of -13.6. Compound `CCCCBr` has a log10 OH rate constant (cm³/molecule/s) of -11.6. With `COC(=O)CCCCC(=O)OC` the log10 OH rate constant (cm³/molecule/s) was -11.1. With `CC(C)(C)Cl` the log10 OH rate constant (cm³/molecule/s) was -12.4. `FC(F)OC(C(F)(F)F)C(F)(F)F` gave a log10 OH rate constant (cm³/molecule/s) of -13.1. In the case of `CCCC=O`, the log10 OH rate constant (cm³/molecule/s) is reported as -10.6.
